What was measured:
Format in all cases: in vivo
Solanum nigrum (SOLNI) [1] = test: Post-emergence biological efficacy, glasshouse pot test; conditions: 312 h
Procedure, shortened: (§1)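 Plants were sown in standard soil and grown 8 days in a glasshouse (24/16° C. day/night, 14 hours light, 65% humidity), then sprayed post-emergence at 1000 or 250 g/ha from acetone/water (50:50) with 0.5% Tween 20. Damage was scored visually after 13 days (0 = none, 100 = total).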

[2] = tested on: Alopecurus myosuroides (ALOMY); test: as above; conditions: 312 h
Procedure, shortened: as §1

[3] = tested on: Echinochloa crus-galli (ECHCG); test: as above; conditions: 312 h
Procedure, shortened: as §1

Setaria faberi (SETFA) [4] = test: as above; conditions: 312 h
Procedure, shortened: as §1

[5] = tested on: Amaranthus retoflexus (AMARE); test: as above; conditions: Amaranthus retroflexus, 312 h
Procedure, shortened: as §1

[6] = tested on: Ipomea hederaceae (IPOHE); test: as above; conditions: Ipomoea hederacea, 312 h
Procedure, shortened: as §1

Solanum nigrum (SOLNI) [7] = test: Pre-emergence biological efficacy, glasshouse pot test; conditions: 312 h
Procedure, shortened: (§2)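 Compound was applied as a spray one day after sowing, at a final dose of 1000 or 250 g/ha. Plants grew under 14 h light, 24/16 °C and 65% humidity, and injury was assessed on day 13 on a 0–100 scale.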

[8] = tested on: Alopecurus myosuroides (ALOMY); test: as above; conditions: 312 h
Procedure, shortened: as §2

[9] = tested on: Echinochloa crus-galli (ECHCG); test: as above; conditions: 312 h
Procedure, shortened: as §2

Setaria faberi (SETFA) [10] = test: as above; conditions: 312 h
Procedure, shortened: as §2

[11] = tested on: Amaranthus retoflexus (AMARE); test: as above; conditions: Amaranthus retroflexus, 312 h
Procedure, shortened: as §2

[12] = tested on: Ipomea hederaceae (IPOHE); test: as above; conditions: Ipomoea hederacea, 312 h
Procedure, shortened: as §2

[13] = Rate 1,000 g/ha, post-emergence spray, evaluated after 13 days (100=total damage to plant; 0=no damage to plant), read-out: Percentage damage caused to weed species, post-emergence, SOLNI
[14] = Rate 1,000 g/ha, post-emergence spray, evaluated after 13 days (100=total damage to plant; 0=no damage to plant), read-out: Percentage damage caused to weed species, post-emergence, ALOMY
[15] = Rate 1,000 g/ha, post-emergence spray, evaluated after 13 days (100=total damage to plant; 0=no damage to plant), read-out: Percentage damage caused to weed species, post-emergence, ECHCG
[16] = Rate 1,000 g/ha, post-emergence spray, evaluated after 13 days (100=total damage to plant; 0=no damage to plant), read-out: Percentage damage caused to weed species, post-emergence, SETFA
[17] = Rate 1,000 g/ha, post-emergence spray, evaluated after 13 days (100=total damage to plant; 0=no damage to plant), read-out: Percentage damage caused to weed species, post-emergence, AMARE
[18] = Rate 1,000 g/ha, post-emergence spray, evaluated after 13 days (100=total damage to plant; 0=no damage to plant), read-out: Percentage damage caused to weed species, post-emergence, IPOHE
[19] = pre-emergence, rate 1,000 g/ha, evaluated after 13 days (100=total damage to plant; 0=no damage), read-out: Percentage damage caused to weed species, SOLNI
[20] = pre-emergence, rate 1,000 g/ha, evaluated after 13 days (100=total damage to plant; 0=no damage), read-out: Percentage damage caused to weed species, ALOMY
[21] = pre-emergence, rate 1,000 g/ha, evaluated after 13 days (100=total damage to plant; 0=no damage), read-out: Percentage damage caused to weed species, ECHCG
[22] = pre-emergence, rate 1,000 g/ha, evaluated after 13 days (100=total damage to plant; 0=no damage), read-out: Percentage damage caused to weed species, SETFA
[23] = pre-emergence, rate 1,000 g/ha, evaluated after 13 days (100=total damage to plant; 0=no damage), read-out: Percentage damage caused to weed species, AMARE
[24] = pre-emergence, rate 1,000 g/ha, evaluated after 13 days (100=total damage to plant; 0=no damage), read-out: Percentage damage caused to weed species, IPOHE
[25] = post-emergence, 1,000 g/ha, evaluated after 13 days (100=total damage; 0=no damage), read-out: Percentage damage caused to weed species, SOLNI
[26] = post-emergence, 1,000 g/ha, evaluated after 13 days (100=total damage; 0=no damage), read-out: Percentage damage caused to weed species, ALOMY
[27] = post-emergence, 1,000 g/ha, evaluated after 13 days (100=total damage; 0=no damage), read-out: Percentage damage caused to weed species, ECHCG
[28] = post-emergence, 1,000 g/ha, evaluated after 13 days (100=total damage; 0=no damage), read-out: Percentage damage caused to weed species, SETFA
[29] = post-emergence, 1,000 g/ha, evaluated after 13 days (100=total damage; 0=no damage), read-out: Percentage damage caused to weed species, AMARE
[30] = post-emergence, 1,000 g/ha, evaluated after 13 days (100=total damage; 0=no damage), read-out: Percentage damage caused to weed species, IPOHE
[31] = pre-emergence, 1,000 g/ha, evaluated after 13 days (100=total damage; 0=no damage), read-out: Percentage damage SOLNI
[32] = pre-emergence, 1,000 g/ha, evaluated after 13 days (100=total damage; 0=no damage), read-out: Percentage damage ALOMY
[33] = pre-emergence, 1,000 g/ha, evaluated after 13 days (100=total damage; 0=no damage), read-out: Percentage damage ECHCG
[34] = pre-emergence, 1,000 g/ha, evaluated after 13 days (100=total damage; 0=no damage), read-out: Percentage damage SETFA
[35] = pre-emergence, 1,000 g/ha, evaluated after 13 days (100=total damage; 0=no damage), read-out: Percentage damage AMARE
[36] = pre-emergence, 1,000 g/ha, evaluated after 13 days (100=total damage; 0=no damage), read-out: Percentage damage IPOHE

SMILES | pest or weed control at 1000 g/ha (Solanum nigrum (SOLNI) [1]; [13]) | pest or weed control at 1000 g/ha [2, 14] | pest or weed control at 1000 g/ha [3, 15] | pest or weed control at 1000 g/ha (Setaria faberi (SETFA) [4]; [16]) | pest or weed control at 1000 g/ha [5, 17] | pest or weed control at 1000 g/ha [6, 18] | pest or weed control at 1000 g/ha (Solanum nigrum (SOLNI) [7]; [19]) | pest or weed control at 1000 g/ha [8, 20] | pest or weed control at 1000 g/ha (Solanum nigrum (SOLNI) [1]; [25]) | pest or weed control at 1000 g/ha [2, 26] | pest or weed control at 1000 g/ha [3, 27] | pest or weed control at 1000 g/ha (Setaria faberi (SETFA) [4]; [28]) | pest or weed control at 1000 g/ha [5, 29] | pest or weed control at 1000 g/ha [6, 30] | pest or weed control at 1000 g/ha (Solanum nigrum (SOLNI) [7]; [31]) | pest or weed control at 1000 g/ha [8, 32] | pest or weed control at 1000 g/ha [9, 33] | pest or weed control at 1000 g/ha (Setaria faberi (SETFA) [10]; [34]) | pest or weed control at 1000 g/ha [11, 35] | pest or weed control at 1000 g/ha [12, 36] | also measured
COC(=O)c1nc(C2CC2)nc(N[C@@H](Cc2ccccc2)C(=O)OC(C)(C)C)c1Cl [4-293 (S), 4-[(1S)-1-^tButoxycarbonyl-2-phenyl-ethylamino]-5-chloro-2-cyclopropyl-6-methoxycarbonyl-pyrimidine] | 80% | 10% | 20% | 40% | 100% | 80% | 50% | 10% |  |  |  |  |  |  |  |  |  |  |  |  | pest or weed control at 1000 g/ha [9, 21]: 20%; pest or weed control at 1000 g/ha (Setaria faberi (SETFA) [10]; [22]): 0%; pest or weed control at 1000 g/ha [11, 23]: 40%; pest or weed control at 1000 g/ha [12, 24]: 60%
COC(=O)c1nc(Cl)nc(NCc2ccc(C)o2)c1Cl [Compound 207-50, 2,5-Dichloro-6-methoxycarbonyl-4-(5-methylfuran-2-ylmethylamino)-pyrimidine] | 80% | 0% | 0% | 0% | 40% | 70% | 80% | 0% |  |  |  |  |  |  |  |  |  |  |  |  | pest or weed control at 1000 g/ha [9, 21]: 0%; pest or weed control at 1000 g/ha (Setaria faberi (SETFA) [10]; [22]): 0%; pest or weed control at 1000 g/ha [11, 23]: 60%; pest or weed control at 1000 g/ha [12, 24]: 40%
C=CC(Nc1nc(C2CC2)nc(C(=O)OC)c1Cl)c1ccccc1 (stereo not drawn) [Compound 4-197, 5-Chloro-2-cyclopropyl-6-methoxycarbonyl-4-(1-phenylprop-2-en-1-yl-amino)-pyrimidine] |  |  |  |  |  |  |  |  | 90% | 40% | 70% | 80% | 100% | 100% | 90% | 20% | 40% | 20% | 90% | 100% | 
COC(=O)c1nc(C2CC2)nc(NCC2(O)CCCCC2)c1Cl [Compound 4-50, 5-Chloro-2-cyclopropyl-4-[(1-hydroxycyclohex-1-yl)methylamino]-6-methoxycarbonyl-pyrimidine] |  |  |  |  |  |  |  |  | 80% | 10% | 10% | 50% | 100% | 70% | 100% | 10% | 10% | 10% | 100% | 100% | 
O=C(O)c1nc(C2CC2)nc(NCc2c(Cl)cccc2Cl)c1Cl [Compound 1-104, 5-Chloro-2-cyclopropyl-4-(2,6-dichlorophenyl-methylamino)-pyrimidine-6-carboxylic acid] |  |  |  |  |  |  |  |  | 50% | 0% | 0% | 0% | 60% | 60% | 0% | 0% | 0% | 0% | 0% | 0% | 
COC(=O)c1nc(C2CC2)nc(NCCc2c[nH]c3ccc(OC)cc23)c1Cl [Compound 4-227, 5-Chloro-2-cyclopropyl-6-methoxycarbonyl-4-[2-(5-methoxyindol-3-yl)-ethylamino]-pyrimidine] |  |  |  |  |  |  |  |  | 80% | 10% | 30% | 40% | 70% | 70% | 30% | 0% | 0% | 0% | 20% | 50% | 
COC(=O)c1nc(C2CC2)nc(NCc2cc(F)ccc2F)c1Cl [Compound 4-98, 5-Chloro-2-cyclopropyl-4-(2,5-difluorophenyl-methyl-amino)-6-methoxycarbonyl-pyrimidine] |  |  |  |  |  |  |  |  | 100% | 40% | 80% | 100% | 100% | 100% | 60% | 30% | 20% | 30% | 50% | 60% | 
COC(=O)c1nc(-c2ccc(OC)c(OC)c2)nc(NCc2ccco2)c1Cl [Compound 260-48, 5-Chloro-2-(3,4-dimethoxyphenyl)-4-(furan-2-ylmethyl-amino)-6-methoxy-carbonylpyrimidine] | 30% | 0% | 0% | 0% | 20% | 0% | 0% | 0% |  |  |  |  |  |  |  |  |  |  |  |  | pest or weed control at 1000 g/ha [9, 21]: 0%; pest or weed control at 1000 g/ha (Setaria faberi (SETFA) [10]; [22]): 0%; pest or weed control at 1000 g/ha [11, 23]: 0%; pest or weed control at 1000 g/ha [12, 24]: 0%
COC(=O)c1nc(C2CC2)nc(NCC2CC2)c1Cl [Compound 4-43, 5-Chloro-2-cyclopropyl-4-cyclopropylmethyl-amino-6-methoxycarbonyl-pyrimidine] |  |  |  |  |  |  |  |  | 90% | 60% | 70% | 100% | 100% | 100% | 90% | 70% | 70% | 70% | 90% | 80% | 

Reference: patent publication US20110086759A1, “CHEMICAL COMPOUNDS” (SYNGENTA CROP PROTECTION, INC., priority 2007, published 2011)
